Experimental findings from patent EP4692094A1 (Beijing Konruns Pharmaceutical Co., Ltd., priority 2023, dated 2024) are described below.

The target in data set [1] is T1, KAT5 (Homo sapiens, UniProt Q92993).
T1 construct: purchased signalChem K314-380G
The data set is described as follows: Enzymatic activity assay for KAT5 acetyltransferase (TR-FRET, histone substrate H4). The format is biochemical. The conditions noted are these: KAT5 1.5 nM, H4 200 nM, AcCOA 2 µM. The procedure:
The acetylation effects of KAT6B on histone substrate H3, as well as KAT5, KAT7, and KAT8 on histone substrate H4, were determined using the TR-FRET (time-resolved fluorescence resonance energy transfer) method. The determination was performed according to experimental procedures similar to those in "Pharmacological Experiment I": 1.2 Preparation of compounds: The compounds prepared in the examples were each dissolved in dimethylsulfoxide to give solutions at a concentration of 10 mmol/L. • 1) The compounds in the examples were each diluted from 10 mmol/L stock solution to 0.2 mmol/L, i.e., 1 µL of the compound was added to 49 µL of DMSO, and 3-fold dilution was performed to give 10 concentrations. • 2) 50 nL of the test compounds were transferred to 384 reaction plates using Echo, two replicates for each compound, and the plates were centrifuged at a rotation speed of 1000 rpm for 1 min, the final concentration of dimethylsulfoxide (DMSO) being 0.5%. […]
For KAT8: • 3) 2.5 µL of the KAT8 enzyme solution at a final concentration of 10 nM was added to the 384 reaction plates in step 2), and the plates were centrifuged at 1000 rpm for 1 min and incubated at 25 °C for 10 min. • 4) 2.5 µL of […] at a final concentration of 300 nM and an AcCOA (acetyl-CoA) reaction solution at a final concentration of 2 µM were added to the 384 reaction plates in step 3), and the plates were centrifuged at a rotation speed of 1000 rpm for 1 min and incubated at 25 °C for 90 min. • 5) 5 µL of Eu-Ab& Ulight-SA detection solution was separately added to the 384 reaction plates in step 4) of the 4 groups described above, and the plates were centrifuged at 1000 rpm for 1 min and incubated at 25 °C for 60 min. • 6) The HTRF […] signals were read using a BMG high-throughput drug-screening multi-mode microplate reader.
The acetylation levels of the histones in the groups were analyzed by the GraphPad Prism 8 software. […]
For orientation: In TR-FRET formats the signal depends on donor and acceptor labels being close together.

Data set [2] deals with T2, CYP1A2 (Homo sapiens, UniProt P05177).
T2 construct: from tissue; host or cells: human liver microsomes
T2 sequence (P05177 1-516): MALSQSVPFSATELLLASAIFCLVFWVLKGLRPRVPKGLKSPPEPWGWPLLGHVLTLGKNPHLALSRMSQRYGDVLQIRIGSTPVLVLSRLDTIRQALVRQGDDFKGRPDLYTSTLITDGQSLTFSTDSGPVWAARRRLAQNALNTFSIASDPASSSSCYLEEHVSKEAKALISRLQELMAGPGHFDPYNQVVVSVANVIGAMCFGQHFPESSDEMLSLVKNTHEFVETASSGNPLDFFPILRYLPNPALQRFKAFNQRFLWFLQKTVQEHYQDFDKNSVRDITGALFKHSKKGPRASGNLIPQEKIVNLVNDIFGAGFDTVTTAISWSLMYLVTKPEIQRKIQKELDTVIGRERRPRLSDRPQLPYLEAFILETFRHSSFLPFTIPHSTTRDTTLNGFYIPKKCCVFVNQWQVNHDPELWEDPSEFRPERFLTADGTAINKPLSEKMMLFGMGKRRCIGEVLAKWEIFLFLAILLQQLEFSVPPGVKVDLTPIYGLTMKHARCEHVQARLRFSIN
The experiment in a line: Inhibitory effect on P450 enzymes in vitro (human liver microsomes), CYP1A2. The following applies: probe phenacetin, final concentration 10 µM, substrate phenacetin, read-out: % inhibition rate CYP1A2 (phenacetin). It is filed as in vitro ADME. Here is the method: 1.1 Preparation of compounds: The compounds prepared in the examples were each dissolved in dimethylsulfoxide to give solutions at a concentration of 2 mmol/L.
1.2 Test methods: • 1) Incubation system: human liver microsomes, a MgCl2 solution, a phosphate buffer solution, and a substrate solution were each added a 96-well deep-well plate and mixed homogenously. In the final incubation system, the concentration of the human liver microsomes was 0.2 mg/mL, and the final concentrations of the MgCl2 solution and the phosphate buffer solution were 5 mM and 100 mM, respectively. • 2) 1 µL of the substrate solution was added to the incubation system, and the final concentrations of CYP1A2 phenacetin, 2C8 paclitaxel […], 2C19 mephenytoin, 2D6 midazolam, and 3A midazolam substrates were 40 µM (phenacetin), 5 µM (paclitaxel), 50 µM (mephenytoin), 10 µM (mephenytoin), 5 µM (midazolam), and 50 µM […], respectively. • 3) 1 µL of the example compound or vehicle (DMSO) was added to the incubation system, and the incubation system was pre-warmed for 5 min in a 37 °C water bath before starting the reaction with 20 µL of 10 mM NADPH solution.
1.3 Sample treatment: Within the designated time (20 min for phenacetin, 10 min for paclitaxel, 20 min for mephenytoin, 20 min for dextromethorphan, 5 min for midazolam, and 10 min for testosterone), 400 µL of methanol containing the internal standard was added to terminate the reaction, and the mixture was vortexed and mixed homogeneously. Then, the deep-well plate was centrifuged at 3220 g and 4 °C for 40 min. 100 µL of the supernatant was transferred into a new plate, and 150 µL of purified water was added. The mixture was mixed homogenously for LC-MS/MS analysis. Table 11. Inhibitory effects of some compounds in the examples on CYP enzymes
On the technique in general: Microsomes from liver hold many membrane-bound enzymes, among them those of drug oxidation.

One may read the IC50 as the concentration at which inhibition is half-maximal. Higher therefore signals lower potency. As a reminder, the inhibition is the relative decrease from the control value, in per cent.

T1 sequence (Q92993 whole entry): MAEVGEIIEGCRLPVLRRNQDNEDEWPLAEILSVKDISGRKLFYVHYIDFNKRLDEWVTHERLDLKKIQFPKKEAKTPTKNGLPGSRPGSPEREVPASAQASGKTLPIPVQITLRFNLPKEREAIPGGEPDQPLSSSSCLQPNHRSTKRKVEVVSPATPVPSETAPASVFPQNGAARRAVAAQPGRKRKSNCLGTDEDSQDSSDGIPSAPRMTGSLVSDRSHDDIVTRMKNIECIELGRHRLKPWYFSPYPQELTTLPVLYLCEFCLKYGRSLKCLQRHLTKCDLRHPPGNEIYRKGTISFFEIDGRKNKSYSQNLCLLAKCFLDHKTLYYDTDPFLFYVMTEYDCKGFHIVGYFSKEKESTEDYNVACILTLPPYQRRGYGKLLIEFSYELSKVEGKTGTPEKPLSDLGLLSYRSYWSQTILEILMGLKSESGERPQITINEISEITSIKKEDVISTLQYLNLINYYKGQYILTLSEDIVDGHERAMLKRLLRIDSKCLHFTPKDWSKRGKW

With `COc1cc2c(cc1S(=O)(=O)Nc1noc3cc(Cn4cccn4)nc(OC)c13)OCC2` [Example 59, N-(6-((1H-Pyrazol-1-yl)methyl)-4-methoxyisoxazolo[4,5-c]pyridin-3-yl)-5-methoxy-2,3-dihydrobenzofuran-6-sulfonamide], in data set [1], half-maximal inhibition (IC50) required 0.171 µM. The inhibition at 20 min, 10 µM in data set [2] was 1.93%.
Taken in the same sequence, the figures for `COc1ccc2ccoc2c1S(=O)(=O)Nc1noc2cc(Cn3cccn3)nc(OC)c12` [Example 10, N-(6-((1H-Pyrazol-1-yl)methyl)-4-methoxyisoxazolo[4,5-c]pyridin-3-yl)-6-methoxybenzofuran-7-sulfonamide] were 0.0664 µM and -1.78%.
Regarding `COc1cc2c(cc1S(=O)(=O)Nc1noc3cc(Cn4cccn4)nc(OC)c13)CCCC2` [Example 2, N-(6-((1H-Pyrazol-1-yl)methyl)-4-methoxyisoxazolo[4,5-c]pyridin-3-yl)-3-methoxy-5,6,7,8-tetrahydronaphthalene-2-sulfonamide], half-maximal inhibition in data set [1] (IC50) required 0.219 µM. The inhibition at 20 min, 10 µM in data set [2] turned out to be 6.02%.
